Earlier results, collected in patent publication US9475888B2, “Non anti-coagulative glycosaminoglycans comprising repeating disaccharide unit and their medical use” (DILAFOR AB, priority 2011, dated 2016).

Tests used:
uterus = settings: Acta Obstetricia et Gynecologica, 2010; 89:147-150
protracted labor = settings: women receiving prophylaxis for deep venous thrombosis
[1] = species not specified

Row | corresponding bioavailability (subcutaneous) [1] | Substance | contractility of the uterus (uterus) | protracted labor (protracted labor)
1 |  | dalteparin | increase | decrease
2 | about 10% | Heparin |  | 
